Test results reported in article PMC7006622 (2019).

Assays:
[1] = test system: TWJ molecular switch for 17β-estradiol (B5/G14 split aptamer, with FP1 and CP1) (DNA, aptamer) TAGGGTGCGGCTCTGCGCATTCAATTGCTGCGCGCTGAAGCGCGGAAGCCCGTACTCTATGAGCCTCTG/GCTTCCAGCTTATTGAATTACACGCAGAGGGTACCGTGT/AAACACGGATCCCATA; assay: single-molecule TIRF, fluorescent probe binding kinetics; settings: 1× PBS; apparent; read from calibration curve of probe kon,F and koff,F against Kd; oxygen scavenger system; surface-immobilised DNA
[2] = test system: TWJ molecular switch for ATP (B3/G12 split aptamer, with FP1 and CP1) (DNA, aptamer) TGGGATTGGAAGGAGGCGTCCGTACTCTATGAGCCTCTG/TATGAGGGGGTCCACCGTGT/AAACACGGATCCCATA; assay: single-molecule TIRF, transient binding of fluorescent probe; settings: 1× PBS; qualitative; oxygen scavenger system; surface-immobilised DNA

Compound | Kd [1] [nM] | binding [2]
C[C@]12CC[C@@H]3c4ccc(O)cc4CC[C@H]3[C@@H]1CC[C@@H]2O | 18 | 
Nc1ncnc2c1ncn2[C@@H]1O[C@H](COP(=O)(O)OP(=O)(O)OP(=O)(O)O)[C@@H](O)[C@H]1O |  | yes
